These results are taken from PMC12267471, “Discovery of natural scaffolds as HER2 inhibitors for breast cancer: virtual screening, molecular dynamics, and biological characterization with selectivity profiling” (Scientific Reports, 2025).

The target of one assay is T1, HER2 kinase (Homo sapiens, UniProt P04626).
T1 construct: HER2 purified kinase domain (amino acids 676–1255); purchased Thermo Fischer Scientific PV3590
Nature of the assay: Z'-LYTE Kinase Assay-Tyr6 Peptide biochemical HER2 kinase assay. The note with it: for IC50: Tyr6 peptide substrate, read-out: IC50, inhibition of ATP-induced HER2 phosphorylation. From the text:
The Z’-LYTE™ Kinase Assay-Tyr6 Peptide kit (Thermo Fischer Scientific™, Madison, WI, USA) was employed to evaluate the potential of selected natural products to suppress the catalytic activity of HER2 kinase. The assay adopts a Fluorescence Resonance Energy Transfer (FRET) based method in a cell-free coupled-enzyme format with no use of antibodies. The assay method mainly relies on the difference in sensitivity of phosphorylated and non-phosphorylated peptides to proteolytic cleavage. This method is a ratio metric method that calculates the Emission Ratio of donor emission divided by acceptor emission after excitation of the donor fluorophore at 400 nm. In this assay, 20 µL/well reactions containing kinase buffer, 200 µM ATP, 4µM Z’-LYTE Tyr6 Peptide substrate, 2500 ng/mL HER2 kinase, and drugs of interest functioning as inhibitors were set up in 96-well plates. Each well received 10 µL of site-specific protease development solution after one hour of room temperature incubation. The incubation continued for a full hour. Following process termination, the kinase inhibitory activity and/or peptide substrate cleavage status were assessed using a plate reader (BioTek FLx800™) to measure the ratio of fluorescence signal at 445 nm (coumarin)/520 nm (fluorescein).
The IC50 value for each natural product was computed using XLfit® 4.1 software (ID Business Solutions Inc. (IDBS), Emeryville CA), applying non-linear regression of log concentration against the percentage of HER2 inhibition.
Utilizing the Z’-LYTE™ Kinase Assay-Tyr6 Peptide kit as a cell-free system for evaluating the inhibitory activity of HER2, the five natural products were evaluated for their capacity to inhibit HER2 phosphorylation. Since its kinase catalysis is necessary for all HER2-mediated activities, we attempted at this initial stage to validate the HER2 inhibitory ability of the five in silico hits directly on the HER2 purified kinase domain (amino acids 676–1255), that was in vitro phosphorylated to attain the maximum level of intrinsic kinase activity. In this assay, the substrate was Z’-LYTE™ Tyr6 peptide; thus, the changes in its phosphorylation can directly correlate with the HER2 kinase activity. In the meantime, tyrphostin AG 1478 was used as a positive control to ensure the validity of the assay. Lapatinib (Tykerb®) was included as a second positive control to benchmark virtual hits’ performance against clinically approved standards.

In another assay the test system is EGFR. On the set-up: method as in earlier work. Conditions: Table S1; cited from earlier work.
The next assay relates to ERBB2. Also noted: method as in earlier work. Conditions: Table S1; cited from earlier work.
The test system of another assay is ERBB4. On the set-up: method as in earlier work. The note with it: Table S1; cited from earlier work.
The test system of assay [1] is BT-474 cells. Nature of the assay: MTT proliferation assay, BT-474. It is filed as cell-based, human. In general terms: Tetrazolium assays rely on reduction of a dye to a coloured formazan, in cell work by metabolically active cells.
Assay [2] relates to SKBR3 cells. Nature of the assay: MTT proliferation assay, SKBR3. The format is cell-based, human.
For another assay, the system named is MCF10A cells. Nature of the assay: MTT cytotoxicity assay, non-tumorigenic MCF10A. It is filed as cell-based, human.
Assay [3] concerns BT-474 cells. The assay can be described thus: Wound healing assay, BT-474. It is filed as cell-based. The note with it: Homo sapiens. The protocol:
(§1) In a sterile flat-bottom 24-well plate, SKBR3 and BT-474 breast cancer cells were plated at a density of 1 × 10^5 cells/well. […] Wounds were then inflicted across each cell monolayer using a sterile 200 µL pipette tip. Media was aspirated, and cells were washed twice with PBS to remove floating cells and cell debris. Fresh serum-free media was placed up against the well wall to cover the bottom of the well and prevent further cell detachment. Incubation of cells was resumed for five hours at 37 °C in a humidified CO2 incubator. Subsequently, the media were substituted with fresh ones containing various doses of liquiritin, oroxin B, or DMSO as a vehicle control (3 replicates/group) along with EGF (100 ng/mL) as a scattering factor. Wound closure was microscopically monitored in vehicle-treated control wells, and the time frame for wound closure was determined to be 72 h. Before the closure of wounds in the vehicle-treated control wells, the media were removed, cells were washed with PBS and completely fixed using cold methanol for 20 min at 4 °C. An inverted VistaVision microscope was used to take pictures of the wounds monitored at zero and 72 h with a VistaVision Still camera (VWR, Radnor, PA).
(§2) Results were expressed as a percentage of cell migration according to the following Equation[16]: [drawing 2]
(§3) Where Tt is the wound thickness in treatment wells, TDMSO is the thickness of the wound in control wells treated by DMSO, and Tº is the thickness of the wound at zero time. Wound thickness was calculated in three or more randomly selected fields per treatment group.

Assay [4] concerns SKBR3 cells. The assay can be described thus: Wound healing assay, SKBR3. It is filed as cell-based. The note with it: Homo sapiens. The procedure:
as §1, §2, §3

Where [5] appears, read: Homo sapiens, BT-474, MTT, 48 h (Table S8), read-out: Cell growth inhibition IC50.
Where [6] appears, read: Homo sapiens, BT-474, Table S9, read-out: IC50.
[7] abbreviates: Homo sapiens, SK-BR-3, SKBR3, MTT, 48 h (Table S8), read-out: Cell growth inhibition IC50.

T1 sequence (P04626 676-1255): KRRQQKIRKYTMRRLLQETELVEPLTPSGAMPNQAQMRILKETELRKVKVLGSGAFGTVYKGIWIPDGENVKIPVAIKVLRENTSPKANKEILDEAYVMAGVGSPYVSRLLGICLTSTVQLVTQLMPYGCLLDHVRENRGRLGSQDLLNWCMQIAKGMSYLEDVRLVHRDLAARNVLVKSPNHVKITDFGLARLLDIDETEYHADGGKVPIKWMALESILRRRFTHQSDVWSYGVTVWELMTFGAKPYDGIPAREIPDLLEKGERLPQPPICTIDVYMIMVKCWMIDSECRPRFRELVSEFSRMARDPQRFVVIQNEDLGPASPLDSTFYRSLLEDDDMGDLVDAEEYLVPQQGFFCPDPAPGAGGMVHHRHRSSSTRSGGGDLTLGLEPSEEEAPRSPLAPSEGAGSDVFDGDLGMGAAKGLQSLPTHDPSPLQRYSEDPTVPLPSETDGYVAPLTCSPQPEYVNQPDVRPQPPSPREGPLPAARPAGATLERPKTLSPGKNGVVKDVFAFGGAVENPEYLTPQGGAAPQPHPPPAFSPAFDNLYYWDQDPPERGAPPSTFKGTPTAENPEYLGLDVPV

With `OC[C@H]1O[C@@H](Oc2cc3c(O[C@@H]4O[C@H](CO)[C@@H](O)[C@H](O)[C@H]4O)cc(O)cc3[o+]c2-c2cc(O)c(O)c(O)c2)[C@H](O)[C@@H](O)[C@@H]1O` [Delphin, Delphinidin-3,5-O-diglucoside], on HER2 kinase (cell-free Z'-LYTE), the “suppression of HER2 phosphorylation” value is on record as “no discernible suppression”.
As to `COc1cc2ncnc(Nc3ccc(F)c(Cl)c3)c2cc1NC(=O)/C=C/CN1CCCCC1` [Dacomitinib], the results for the IC50 with EGFR, in the assay with ERBB2 and with ERBB4 were 0.006 µM, […] and […], respectively.
In the case of `C[C@@H]1O[C@@H](OC[C@H]2O[C@@H](Oc3cc(O)c4c(=O)cc(-c5ccc(O)cc5)oc4c3)[C@H](O[C@@H]3O[C@@H](C)[C@H](O)[C@@H](O)[C@H]3O)[C@@H](O)[C@@H]2O)[C@H](O)[C@H](O)[C@H]1O` [Ligustroflavone], the IC50 at HER2 kinase (cell-free Z'-LYTE) came to 0.0365 µM; in the assay with BT-474 cells [1] (BT-474, MTT, 48 h (Table S8), read-out: Cell growth inhibition IC50), 6 µM; in the assay with SKBR3 cells [2] (SKBR3, MTT, 48 h (Table S8), read-out: Cell growth inhibition IC50), 12.7 µM.
For `CS(=O)(=O)CCNCc1ccc(-c2ccc3ncnc(Nc4ccc(OCc5cccc(F)c5)c(Cl)c4)c3c2)o1` [Lapatinib, reference compound], the inhibition at 0.015 µM against HER2 kinase (at 15 nM) came to 54%. Further, the inhibition at 0.03 µM on HER2 kinase (at 30 nM) was 75%. Further, the IC50 worked out at 0.117 µM in the assay on BT-474 cells [1] (setting [5]); 0.118 µM in the assay on BT-474 cells [1] (Homo sapiens, BT-474, MTT, 48 h, read-out: IC50); 0.153 µM in the assay with SKBR3 cells [2] (Homo sapiens, SK-BR-3, SKBR3, MTT, 48 h, read-out: IC50).
On to `O=c1cc(-c2ccccc2)oc2cc(O[C@@H]3O[C@H](CO[C@@H]4O[C@H](CO)[C@@H](O)[C@H](O)[C@H]4O)[C@@H](O)[C@H](O)[C@H]3O)c(O)c(O)c12` [Oroxin B], for which the IC50 on HER2 kinase (cell-free Z'-LYTE) was 0.0121 µM; with BT-474 cells [1] (setting [5]), 6.9 µM; with BT-474 cells [1] (setting [6]) it was 6.9 ± 0.7 µM; in the assay on SKBR3 cells [2] (setting [7]) it was 11.9 µM; in the assay on SKBR3 cells [2] (Homo sapiens, SK-BR-3, SKBR3, Table S9, read-out: IC50), 11.9 ± 0.8 µM; in the assay on MCF10A cells (Homo sapiens, MCF-10A, MCF10A, MTT, 24 h), 53 ± 2.1 µM. The IC50 with BT-474 cells [3] (BT-474, read-out: IC50, cell migration) was above 20 µM; with SKBR3 cells [4] (SK-BR-3, read-out: IC50, cell migration), above 36 µM. Further, the “selectivity index (SI)” value with MCF10A cells (IC50 MCF10A / IC50 BT-474) is given as 7.7; with MCF10A cells (IC50 MCF10A / IC50 SKBR3), 4.5. The inhibition at 3 µM in the assay on BT-474 cells [3] (BT-474, 3 µM, 72 h, read-out: inhibition of cell migration) amounted to 18.9%. The inhibition at 7 µM with BT-474 cells [3] (BT-474, 7 µM, 72 h, read-out: inhibition of cell migration) was 26.5%. Moreover, in the assay with BT-474 cells [3] (BT-474, 10 µM, 72 h, read-out: inhibition of cell migration), the inhibition at 10 µM is 29.5%. For the same molecule, in the assay with BT-474 cells [3] (BT-474, 20 µM, 72 h, read-out: inhibition of cell migration), the inhibition at 20 µM is 38.6%. Also, the inhibition at 6 µM with SKBR3 cells [4] (SK-BR-3, SKBR3, 6 µM, 72 h, read-out: inhibition of cell migration) stood at 23.5%. Besides, in the assay with SKBR3 cells [4] (SK-BR-3, SKBR3, 12 µM, 72 h, read-out: inhibition of cell migration), the inhibition at 12 µM is 26.5%. Besides, the inhibition at 18 µM in the assay on SKBR3 cells [4] (SK-BR-3, SKBR3, 18 µM, 72 h, read-out: inhibition of cell migration) came out at 31.1%. Also, the inhibition at 36 µM with SKBR3 cells [4] (SK-BR-3, SKBR3, 36 µM, 72 h, read-out: inhibition of cell migration) worked out at 34.8%.
For `CN[C@@H]1C[C@H]2O[C@@](C)([C@@H]1OC)n1c3ccccc3c3c4c(c5c6ccccc6n2c5c31)C(=O)NC4` [Staurosporine, reference compound], the IC50 with BT-474 cells [1] (setting [5]) amounted to 3.2 µM; in the assay with BT-474 cells [1] (setting [6]), 3.2 ± 0.3 µM.
`OC[C@H]1O[C@@H](Oc2cc(O)cc(/C=C/c3ccc(O[C@@H]4O[C@H](CO)[C@@H](O)[C@H](O)[C@H]4O)cc3O)c2)[C@H](O)[C@@H](O)[C@@H]1O` [Mulberroside A]: the IC50 was determined as 0.0377 µM on HER2 kinase (cell-free Z'-LYTE), 5.9 µM with BT-474 cells [1] (setting [5]) and 11 µM with SKBR3 cells [2] (setting [7]).
